Experimental data taken from doi:10.1101/2020.12.17.423306v1 (biorxiv, 2020).

What was measured:
OsHSL1 = target: T1, OsHSL1 (Oryza sativa, UniProt A0A7G1K9G4); experiment: HPLC of TFT conversion; format: biochemical
T1 sequence (A0A7G1K9G4 1-350): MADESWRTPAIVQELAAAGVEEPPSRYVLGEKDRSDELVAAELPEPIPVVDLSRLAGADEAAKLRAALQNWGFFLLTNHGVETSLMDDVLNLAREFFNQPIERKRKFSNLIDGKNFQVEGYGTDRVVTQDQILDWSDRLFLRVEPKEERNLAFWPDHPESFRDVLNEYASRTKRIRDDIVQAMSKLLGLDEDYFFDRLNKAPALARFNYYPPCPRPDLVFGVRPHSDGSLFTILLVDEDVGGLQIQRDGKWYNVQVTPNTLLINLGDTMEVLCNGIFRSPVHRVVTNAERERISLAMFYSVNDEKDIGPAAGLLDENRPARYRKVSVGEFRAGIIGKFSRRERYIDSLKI

HIS1 = target: T2, HIS1 (Oryza sativa, UniProt A0A7G1K8F5); experiment: HPLC of BBC-OH hydroxylation; format: biochemical
T2 sequence (A0A7G1K8F5 1-351): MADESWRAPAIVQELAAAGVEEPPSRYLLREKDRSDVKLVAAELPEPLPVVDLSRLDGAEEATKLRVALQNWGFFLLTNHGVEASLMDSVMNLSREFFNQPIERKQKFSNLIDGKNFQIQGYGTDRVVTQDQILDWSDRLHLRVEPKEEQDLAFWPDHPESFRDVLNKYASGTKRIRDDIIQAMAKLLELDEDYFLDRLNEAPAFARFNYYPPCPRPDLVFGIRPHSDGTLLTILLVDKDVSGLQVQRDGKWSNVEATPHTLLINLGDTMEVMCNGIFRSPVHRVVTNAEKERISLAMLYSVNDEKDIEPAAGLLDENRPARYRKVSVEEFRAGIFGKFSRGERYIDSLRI

Row | IC50 (OsHSL1) | IC50 (HIS1) | SMILES
1 | ~125 µM | – | CCOC(=O)C1CC(=O)C(=C(O)C2CC2)C(=O)C1 (centres unmarked) [TE, ethyl-(3-oxido-4-cyclopropionyl-5-oxo) oxo-3-cyclohexenecarboxylate]
2 | – | 50 µM | CCC(=O)C1C(=O)CC(C(=O)O)CC1=O (centres unmarked) [prohexadione, 3,5-dioxo-4-propionylcyclohexanecarboxylic acid]
